Source: ChEMBL document CHEMBL3243975 (J Med Chem, 1978)

Columns and labels:
Mus musculus [1] = assay: Narcotic antagonist activity in sc dosed mouse assessed as inhibition of oxymorphone-induced nacrosis; type: functional
Rattus norvegicus [2] = assay: Narcotic antagonist activity in sc dosed rat assessed as inhibition of oxymorphone-induced straub tail effect; type: functional
Rattus norvegicus [3] = organism: Rattus norvegicus; assay: Narcotic agonist activity in rat by writhing test; type: functional
Sus scrofa [4] = organism: Sus scrofa; assay: Agonist activity at pig ileum opioid receptor; type: tissue-based
Mus musculus [5] = organism: Mus musculus; assay: Narcotic agonist activity in mouse by writhing test; type: functional
Sus scrofa [6] = organism: Sus scrofa; assay: Binding affinity to pig ileum opioid receptor; type: tissue-based
Rattus norvegicus [7] = organism: Rattus norvegicus; assay: Narcotic agonist activity in rat by hot plate test; type: functional

O=C1CC[C@@]2(O)[C@H]3Cc4ccc(O)c5c4[C@@]2(CCN3CC2CCC2)[C@H]1O5
ED50 (Mus musculus [1]): 0.57 mg/kg | ED50 (Rattus norvegicus [2]): 0.19 mg/kg | ED50 (Rattus norvegicus [3]): 0.06 mg/kg | ID50 (Sus scrofa [4]): 60 nM | ED50 (Mus musculus [5]): 0.39 mg/kg | Ke (Sus scrofa [6]): 3 nM

O=C1CC[C@@]2(O)[C@H]3Cc4ccc(O)c5c4[C@@]2(CCN3CCc2ccccc2)[C@H]1O5
ED50 (Rattus norvegicus [7]): 0.014 mg/kg

CN1CC[C@]23c4c5ccc(O)c4O[C@H]2[C@@H](O)C=C[C@H]3[C@H]1C5 [MORPHINE]
ED50 (Rattus norvegicus [3]): 0.26 mg/kg | ED50 (Mus musculus [5]): 0.8 mg/kg

CC(C)=CCN1CC[C@]23c4c5ccc(O)c4O[C@H]2C(=O)CC[C@@]3(O)[C@H]1C5 [NALMEXONE]
ED50 (Mus musculus [1]): 5.6 mg/kg | ED50 (Rattus norvegicus [2]): 1.4 mg/kg | ED50 (Rattus norvegicus [3]): 0.74 mg/kg | ED50 (Rattus norvegicus [7]): 10.7 mg/kg | ID50 (Sus scrofa [4]): 400 nM | ED50 (Mus musculus [5]): 2 mg/kg | Ke (Sus scrofa [6]): 43 nM

C=CCN1CC[C@]23c4c5ccc(O)c4O[C@H]2[C@@H](O)C=C[C@H]3[C@H]1C5 [NALORPHINE]
ED50 (Mus musculus [1]): 1.45 mg/kg | ED50 (Rattus norvegicus [2]): 0.9 mg/kg | ED50 (Rattus norvegicus [3]): 1 mg/kg | ID50 (Sus scrofa [4]): 24.3 nM

C=CCN1CC[C@]23c4c5ccc(O)c4O[C@H]2C(=O)CC[C@@]3(O)[C@H]1C5 [NALOXONE]
ED50 (Mus musculus [1]): 0.14 mg/kg | ED50 (Rattus norvegicus [2]): 0.051 mg/kg | ED50 (Rattus norvegicus [3]): > 100 mg/kg | ED50 (Mus musculus [5]): > 100 mg/kg

O=C1CC[C@@]2(O)[C@H]3Cc4ccc(O)c5c4[C@@]2(CCN3CC2CC2)[C@H]1O5 [NALTREXONE]
ED50 (Mus musculus [1]): 0.047 mg/kg | ED50 (Rattus norvegicus [2]): 0.023 mg/kg | ED50 (Rattus norvegicus [3]): 0.14 mg/kg | ID50 (Sus scrofa [4]): > 850 nM | ED50 (Mus musculus [5]): > 100 mg/kg | Ke (Sus scrofa [6]): 0.38 nM

CN1CC[C@]23c4c5ccc(O)c4O[C@H]2C(=O)CC[C@@]3(O)[C@H]1C5 [OXYMORPHONE]
ED50 (Rattus norvegicus [3]): 0.02 mg/kg | ED50 (Rattus norvegicus [7]): 0.17 mg/kg | ID50 (Sus scrofa [4]): 12.1 nM | ED50 (Mus musculus [5]): 0.046 mg/kg | Ke (Sus scrofa [6]): 11.2 nM
